Results on one compound are retold here after article PMC10641814 (Journal of Medicinal Chemistry, 2023).

Read-outs that look alike come from different tables or passages of the source.

For series [1], the target named is T1, 5-HT3R (Cavia porcellus, UniProt O70212).
T1 construct: from tissue; host or cells: guinea pig ileum
T1 sequence (O70212 20-490): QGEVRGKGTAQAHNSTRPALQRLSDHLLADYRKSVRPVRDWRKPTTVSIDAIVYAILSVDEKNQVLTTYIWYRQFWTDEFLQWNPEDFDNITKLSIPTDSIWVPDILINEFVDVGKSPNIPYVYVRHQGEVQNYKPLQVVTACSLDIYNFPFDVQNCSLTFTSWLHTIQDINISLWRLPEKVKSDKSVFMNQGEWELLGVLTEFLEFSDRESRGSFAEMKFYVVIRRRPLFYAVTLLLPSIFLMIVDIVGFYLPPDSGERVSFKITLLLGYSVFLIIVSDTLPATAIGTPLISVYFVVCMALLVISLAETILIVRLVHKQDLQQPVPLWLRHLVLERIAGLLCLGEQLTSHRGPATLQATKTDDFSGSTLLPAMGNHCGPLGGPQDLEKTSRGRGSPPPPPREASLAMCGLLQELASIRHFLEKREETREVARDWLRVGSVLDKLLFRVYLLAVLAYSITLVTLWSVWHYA
In words: Ex vivo guinea pig ileum contractility, serotonin-induced. The conditions noted are these: 15 min incubation.

The target of series [2] is dopaminergic D3R (Homo sapiens, UniProt P35462). In words: D3R binding ([3H]-methylspiperone), Eurofins. The conditions noted are these: read-out: dopamine D3 % inhibition at 1 microM. An excerpt:
(§1) The results were expressed as the %
(§2) www.eurofinsdiscovery.com.

Series [3] has as its target T2, human 5-HT1A (Homo sapiens, UniProt P08908).
T2 construct: expressed in transfected cells
T2 sequence (P08908 1-422): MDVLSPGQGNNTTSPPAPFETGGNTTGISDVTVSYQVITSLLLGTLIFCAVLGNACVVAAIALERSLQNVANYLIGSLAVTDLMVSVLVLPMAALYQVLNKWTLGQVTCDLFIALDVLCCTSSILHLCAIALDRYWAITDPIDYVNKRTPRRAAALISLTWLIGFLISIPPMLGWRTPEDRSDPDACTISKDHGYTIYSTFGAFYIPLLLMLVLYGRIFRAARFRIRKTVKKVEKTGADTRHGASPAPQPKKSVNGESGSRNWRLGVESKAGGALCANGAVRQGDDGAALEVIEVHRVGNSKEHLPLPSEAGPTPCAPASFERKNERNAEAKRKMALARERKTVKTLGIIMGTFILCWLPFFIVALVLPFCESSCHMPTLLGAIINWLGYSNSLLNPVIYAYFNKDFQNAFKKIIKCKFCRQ
In words: 5-HT1AR binding ([3H]-8-OH-DPAT), HEK293. The conditions noted are these: read-out: serotonin 5-HT1A % inhibition at 1 microM. How it is done: 3. Selectivity screen of PZ-1922
For membrane preparation,
EDTA and 1 mM dithiothreitol.
The composition of the assay buffers was
reader (PerkinElmer, USA).
as §1, §2

In series [4] the target is T3, 5-HT2CR (Homo sapiens, UniProt P28335).
T3 sequence (P28335 33-458): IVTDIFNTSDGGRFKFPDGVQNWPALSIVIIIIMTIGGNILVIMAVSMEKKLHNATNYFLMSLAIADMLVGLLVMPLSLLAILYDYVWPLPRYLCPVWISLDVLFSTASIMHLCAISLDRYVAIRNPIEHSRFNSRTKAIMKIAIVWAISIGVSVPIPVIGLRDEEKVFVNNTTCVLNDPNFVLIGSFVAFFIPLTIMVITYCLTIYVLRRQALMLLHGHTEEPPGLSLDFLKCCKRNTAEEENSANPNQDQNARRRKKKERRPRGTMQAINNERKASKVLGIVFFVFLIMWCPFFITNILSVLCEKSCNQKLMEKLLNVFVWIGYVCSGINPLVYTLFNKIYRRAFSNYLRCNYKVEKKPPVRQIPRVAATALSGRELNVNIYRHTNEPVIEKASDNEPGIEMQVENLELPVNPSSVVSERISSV
Description: 5-HT2CR binding ([3H]-mesulergine), Eurofins. The note with it: read-out: serotonin 5-HT2C % inhibition at 1 microM.
Source text: as §1, §2

Series [5] in a line: Preliminary pharmacokinetics in male Wistar rats, plasma and brain. The conditions noted are these: rat; for MRT: read-out: MRT mean residence time (converted). Type of series: in vivo.
The target in series [6] is 5-HT2AR (Homo sapiens, UniProt P28223). Description: 5-HT2AR binding ([3H]-ketanserine), Eurofins. The note with it: read-out: serotonin 5-HT2A % inhibition at 1 microM.
Sequence of 5-HT2AR (P28223 whole entry): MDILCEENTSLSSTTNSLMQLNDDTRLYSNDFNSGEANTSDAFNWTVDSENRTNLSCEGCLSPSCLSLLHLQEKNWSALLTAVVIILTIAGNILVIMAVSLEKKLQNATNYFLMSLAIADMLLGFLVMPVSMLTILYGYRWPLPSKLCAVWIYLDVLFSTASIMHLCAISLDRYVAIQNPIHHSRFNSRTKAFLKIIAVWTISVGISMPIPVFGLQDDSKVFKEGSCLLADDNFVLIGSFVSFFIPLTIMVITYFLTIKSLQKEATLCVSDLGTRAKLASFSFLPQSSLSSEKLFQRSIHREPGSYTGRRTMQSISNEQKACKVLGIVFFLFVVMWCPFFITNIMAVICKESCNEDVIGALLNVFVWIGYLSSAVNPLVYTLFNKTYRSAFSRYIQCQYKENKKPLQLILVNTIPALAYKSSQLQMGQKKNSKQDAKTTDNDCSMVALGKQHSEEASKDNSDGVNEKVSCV
Source text: as §1, §2

Series [7] has as its system hippocampus of rats injected with oAβ25–35. In words: Western blot of hippocampal AD biomarkers in oAβ25–35-injected rats. The note with it: oAβ25–35 icv. Format: in vivo, rat. How it is done:
As previously detailed,[37],[64] to induce the acute model of AD (oAβ25–35 model), rats were divided into three groups. […] The animals were anesthetized with an intraperitoneal (ip) injection of a mixture of ketamine and xylazine (80 and 10 mg/kg b.w., respectively). Scrambled peptide and oAβ25–35 were injected directly into the lateral ventricles at a rate of 2 μL/min using a David-Kopf stereotaxic apparatus (coordinates of injection: AP −1 mm, L ±1.5 mm, DV −3.5 mm).
On day 14, animals were subjected to a behavioral memory test (T-maze) and sacrificed on day 15 by decapitation.
2—A preventive approach: This treatment was started at the same time as the induction of amyloid toxicity and consisted of implanting ip, and during the same anesthetic procedure necessary for the icv injection of oAβ25–35, an osmotic pump (Alzet-EML2, Charles-River, France) which continuously delivered the molecules for 1 week at the dose of 3 mg/kg/day. On day 7, animals were submitted to a behavioral memory test (T-maze) and sacrificed on day 8 by decapitation.
At the time of sacrifice, all hippocampi were dissected out, weighed, and rapidly frozen in liquid nitrogen for Western blot (WB) analysis.
Western blot analyses were performed on the whole hippocampus as previously described.[37] All antibodies used are detailed in Table S3. Briefly, after sacrifice, hippocampi were microdissected, weighed, immediately frozen in liquid nitrogen, and stored at −20 °C. Tissues were sonicated (VibraCell; Sonics & Materials, USA) in a lysis buffer[37] and centrifuged (4 °C). Supernatants were collected, and the protein concentration was measured using a bicinchoninic Acid (BCA) assay (ThermoFisher Scientific, France). […] The membranes were incubated overnight (4 °C) with the primary antibody, washed, and then incubated for 2 h with the appropriate horseradish peroxidase-conjugated secondary antibody. […] The intensity of the immunoreactive signals was quantified using Image-J software (NIH, Bethesda, […], USA). β-Tubulin (β-Tub) was used as a loading control for all experiments.
A general note: A western blot detects proteins with antibodies after separation by electrophoresis.

The mark [8] stands for this setting: male, Wistar, po, 3 mg/kg intragastric, plasma.
[9] abbreviates: male, Wistar, 3 mg/kg intravenous, plasma.
Setting [10] is: 1.5 mg/kg ip twice a day for 7 days.
Setting [11] is: 3 mg/kg/day osmotic pump 1 week.
[12] abbreviates: curative and preventive approach.

Sequence of dopaminergic D3R (P35462 whole entry): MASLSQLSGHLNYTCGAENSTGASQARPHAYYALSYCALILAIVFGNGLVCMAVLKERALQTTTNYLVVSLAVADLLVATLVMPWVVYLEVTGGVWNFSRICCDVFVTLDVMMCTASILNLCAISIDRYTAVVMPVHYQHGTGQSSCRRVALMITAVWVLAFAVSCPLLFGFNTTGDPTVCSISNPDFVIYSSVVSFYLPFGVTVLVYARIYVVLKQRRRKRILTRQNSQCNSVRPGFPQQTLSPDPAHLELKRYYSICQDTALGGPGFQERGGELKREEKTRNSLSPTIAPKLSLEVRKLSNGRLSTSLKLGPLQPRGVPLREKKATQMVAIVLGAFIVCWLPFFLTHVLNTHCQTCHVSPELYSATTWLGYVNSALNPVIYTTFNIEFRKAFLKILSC

As usually defined, the inhibition is the drop in the measured response relative to a control, in per cent. For orientation: MRT means the average time that molecules of a dose stay in the body. By AUC(0-t) is commonly meant the area under the concentration-time curve up to a stated or last time point. Low values mean low exposure, high ones high exposure. One may read the Cmax as the peak of the concentration-time curve. One may read the Tmax as the time at which the peak concentration occurs. By clearance is commonly meant a measure of how efficiently the substance is removed, as volume per time. Turning to `Cl.Clc1cccc(Cn2ccc3c(N4CCNCC4)nc4ccccc4c32)c1` [PZ-1922, 1-(3-Chlorobenzyl)-4-(piperazin-1-yl)-1H-pyrrolo[3,2-c]quinoline Hydrochloride], the “pD2' antagonism at 5-HT3R” value was 7.32 in series [1] and 7,32 in series [1] (listed as 16 (PZ1922), 15 min). Further, the inhibition at 1 µM turned out to be 31% in series [2], 3% in series [3], 4% in series [4] and 5% in series [6]. Also, the mean residence time (MRT) in series [5] (male, Wistar, po, 3 mg/kg intragastric, brain) was 4.58 h; in series [5] (setting [8]), 3.93 h; in series [5] (male, Wistar, 3 mg/kg intravenous, brain) it was 2.83 h; in series [5] (setting [9]), 3.48 h. The AUC(0-t) in series [5] (setting [8]) is 224 ng·h/mL; in series [5] (setting [9]), 467 ng·h/mL. This compound also came in with a peak concentration (Cmax) in series [5] (setting [8]) of 38.6 ng/mL. In addition, the Tmax in series [5] (setting [8]) is 2 h. In series [5] (male, Wistar, 3 mg/kg intravenous, plasma, read-out: Cl clearance), the clearance is 39.2 mL/min/kg. The AUC0→t in series [5] (3 mg/kg intragastric, brain) was found to be 42186 ng·min/g; in series [5] (3 mg/kg intravenous, brain), 170827 ng·min/g. In addition, the “hippocampal Caspase-3 and Pro-caspase-3 expression, curative strategy” value in series [7] (setting [10]) is “decreased expression of Caspase-3 and Pro-caspase-3”. In addition, the “hippocampal PSD-95 and SYN levels, curative treatment” value in series [7] (setting [10]) was “reversed PSD-95 and SYN levels”. In addition, the “hippocampal Caspase-3 and Pro-caspase-3 expression, preventive treatment” value in series [7] (setting [11]) was “prevented increased expression of Caspase-3 and Pro-caspase-3”. The “hippocampal PSD-95 and SYN levels, preventive treatment” value in series [7] (setting [11]) was “reversed PSD-95 and SYN levels”. In addition, the “hippocampal GFAP increase” value in series [7] (setting [12]) is listed as “Neither PZ-1922 nor intepirdine impacted the GFAP increase”. Also, the “hippocampal Iba1 level” value in series [7] (setting [12]) is listed as “decreased the Iba1 level regardless of the applied approach”.
